{
  "source": "paper PMC7316778",
  "about": "(Nature Communications, 2020)",
  "key": {"FES^S700C HL-60 cells": {"tested_on": "FES^S700C HL-60 cells", "assay": "CD11b surface expression, neutrophil differentiation", "format": "cell-based, human", "conditions": "100 nM; Supplementary Figure 12c; individual replicates; listed as WEL028"}, "CLK4": {"target": "CLK4 (Homo sapiens, UniProt Q9HAZ1)", "sequence (Q9HAZ1 whole entry, species assumed)": "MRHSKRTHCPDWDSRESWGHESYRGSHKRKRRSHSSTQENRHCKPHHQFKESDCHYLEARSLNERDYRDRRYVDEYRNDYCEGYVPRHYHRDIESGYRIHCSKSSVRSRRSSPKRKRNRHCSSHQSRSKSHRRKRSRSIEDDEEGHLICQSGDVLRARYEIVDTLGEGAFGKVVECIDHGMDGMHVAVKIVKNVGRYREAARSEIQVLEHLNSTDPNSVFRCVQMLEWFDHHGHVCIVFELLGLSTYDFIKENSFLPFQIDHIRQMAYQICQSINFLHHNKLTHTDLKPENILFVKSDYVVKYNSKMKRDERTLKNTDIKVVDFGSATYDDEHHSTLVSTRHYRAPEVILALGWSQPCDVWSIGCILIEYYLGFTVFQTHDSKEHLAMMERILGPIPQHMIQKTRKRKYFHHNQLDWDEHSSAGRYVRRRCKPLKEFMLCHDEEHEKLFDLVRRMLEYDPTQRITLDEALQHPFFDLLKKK", "assay": "SelectScreen kinase assay"}, "CSNK1A1L": {"target": "CSNK1A1L (Homo sapiens, UniProt Q8N752)", "sequence (Q8N752 whole entry)": "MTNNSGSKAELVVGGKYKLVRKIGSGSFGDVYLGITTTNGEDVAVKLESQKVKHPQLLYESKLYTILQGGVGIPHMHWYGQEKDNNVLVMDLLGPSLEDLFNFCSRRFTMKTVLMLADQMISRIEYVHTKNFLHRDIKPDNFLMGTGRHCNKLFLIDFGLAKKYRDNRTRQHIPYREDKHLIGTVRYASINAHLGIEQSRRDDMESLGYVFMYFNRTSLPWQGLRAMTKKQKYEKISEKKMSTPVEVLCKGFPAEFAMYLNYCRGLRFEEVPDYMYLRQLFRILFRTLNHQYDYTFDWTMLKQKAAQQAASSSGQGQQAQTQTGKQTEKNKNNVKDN", "assay": "SelectScreen kinase assay"}, "ERN2": {"target": "ERN2 (Homo sapiens, UniProt Q76MJ5)", "assay": "SelectScreen kinase assay"}, "FLT1 (VEGFR1)": {"target": "FLT1 (VEGFR1) (Homo sapiens, UniProt P17948)", "sequence (P17948 27-1338)": "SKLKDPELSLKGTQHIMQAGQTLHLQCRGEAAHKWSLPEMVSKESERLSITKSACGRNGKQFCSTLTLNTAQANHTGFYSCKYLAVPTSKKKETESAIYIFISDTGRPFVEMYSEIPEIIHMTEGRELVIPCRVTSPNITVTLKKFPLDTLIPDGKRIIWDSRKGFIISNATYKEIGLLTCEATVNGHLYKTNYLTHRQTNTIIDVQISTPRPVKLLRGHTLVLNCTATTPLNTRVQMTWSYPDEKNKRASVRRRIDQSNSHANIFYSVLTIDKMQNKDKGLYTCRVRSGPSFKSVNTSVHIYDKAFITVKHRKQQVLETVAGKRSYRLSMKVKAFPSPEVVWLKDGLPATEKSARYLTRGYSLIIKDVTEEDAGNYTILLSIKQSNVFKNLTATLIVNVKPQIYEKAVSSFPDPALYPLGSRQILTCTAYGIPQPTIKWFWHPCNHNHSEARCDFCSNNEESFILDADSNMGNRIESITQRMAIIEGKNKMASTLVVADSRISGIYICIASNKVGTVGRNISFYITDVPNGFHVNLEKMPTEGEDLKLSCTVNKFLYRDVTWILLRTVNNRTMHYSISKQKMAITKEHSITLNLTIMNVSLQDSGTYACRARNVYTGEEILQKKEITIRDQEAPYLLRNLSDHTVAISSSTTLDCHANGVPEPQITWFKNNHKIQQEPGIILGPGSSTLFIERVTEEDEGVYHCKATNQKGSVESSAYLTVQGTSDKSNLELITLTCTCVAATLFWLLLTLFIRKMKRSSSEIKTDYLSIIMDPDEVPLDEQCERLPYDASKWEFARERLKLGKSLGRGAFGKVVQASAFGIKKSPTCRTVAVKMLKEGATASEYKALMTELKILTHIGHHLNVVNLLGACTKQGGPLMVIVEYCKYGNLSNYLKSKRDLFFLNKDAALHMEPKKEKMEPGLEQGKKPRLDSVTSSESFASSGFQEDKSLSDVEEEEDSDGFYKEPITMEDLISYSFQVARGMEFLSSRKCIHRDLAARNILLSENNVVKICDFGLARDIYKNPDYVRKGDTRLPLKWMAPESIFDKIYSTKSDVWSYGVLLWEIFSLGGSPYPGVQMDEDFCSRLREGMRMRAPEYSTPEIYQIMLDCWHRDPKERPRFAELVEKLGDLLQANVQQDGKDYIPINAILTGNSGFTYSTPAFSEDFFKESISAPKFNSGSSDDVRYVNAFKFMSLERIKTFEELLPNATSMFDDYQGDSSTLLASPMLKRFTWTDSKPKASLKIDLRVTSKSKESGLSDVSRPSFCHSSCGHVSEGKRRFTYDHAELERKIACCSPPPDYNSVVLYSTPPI", "assay": "SelectScreen kinase assay"}, "JAK2": {"target": "JAK2 (Homo sapiens, UniProt O60674)", "assay": "SelectScreen kinase assay", "conditions": "1 μM WEL028, 1 h preincubation"}, "MAP3K5 (ASK1)": {"target": "T1, MAP3K5 (ASK1) (Homo sapiens, UniProt Q99683)", "T1 sequence (Q99683 1-1374)": "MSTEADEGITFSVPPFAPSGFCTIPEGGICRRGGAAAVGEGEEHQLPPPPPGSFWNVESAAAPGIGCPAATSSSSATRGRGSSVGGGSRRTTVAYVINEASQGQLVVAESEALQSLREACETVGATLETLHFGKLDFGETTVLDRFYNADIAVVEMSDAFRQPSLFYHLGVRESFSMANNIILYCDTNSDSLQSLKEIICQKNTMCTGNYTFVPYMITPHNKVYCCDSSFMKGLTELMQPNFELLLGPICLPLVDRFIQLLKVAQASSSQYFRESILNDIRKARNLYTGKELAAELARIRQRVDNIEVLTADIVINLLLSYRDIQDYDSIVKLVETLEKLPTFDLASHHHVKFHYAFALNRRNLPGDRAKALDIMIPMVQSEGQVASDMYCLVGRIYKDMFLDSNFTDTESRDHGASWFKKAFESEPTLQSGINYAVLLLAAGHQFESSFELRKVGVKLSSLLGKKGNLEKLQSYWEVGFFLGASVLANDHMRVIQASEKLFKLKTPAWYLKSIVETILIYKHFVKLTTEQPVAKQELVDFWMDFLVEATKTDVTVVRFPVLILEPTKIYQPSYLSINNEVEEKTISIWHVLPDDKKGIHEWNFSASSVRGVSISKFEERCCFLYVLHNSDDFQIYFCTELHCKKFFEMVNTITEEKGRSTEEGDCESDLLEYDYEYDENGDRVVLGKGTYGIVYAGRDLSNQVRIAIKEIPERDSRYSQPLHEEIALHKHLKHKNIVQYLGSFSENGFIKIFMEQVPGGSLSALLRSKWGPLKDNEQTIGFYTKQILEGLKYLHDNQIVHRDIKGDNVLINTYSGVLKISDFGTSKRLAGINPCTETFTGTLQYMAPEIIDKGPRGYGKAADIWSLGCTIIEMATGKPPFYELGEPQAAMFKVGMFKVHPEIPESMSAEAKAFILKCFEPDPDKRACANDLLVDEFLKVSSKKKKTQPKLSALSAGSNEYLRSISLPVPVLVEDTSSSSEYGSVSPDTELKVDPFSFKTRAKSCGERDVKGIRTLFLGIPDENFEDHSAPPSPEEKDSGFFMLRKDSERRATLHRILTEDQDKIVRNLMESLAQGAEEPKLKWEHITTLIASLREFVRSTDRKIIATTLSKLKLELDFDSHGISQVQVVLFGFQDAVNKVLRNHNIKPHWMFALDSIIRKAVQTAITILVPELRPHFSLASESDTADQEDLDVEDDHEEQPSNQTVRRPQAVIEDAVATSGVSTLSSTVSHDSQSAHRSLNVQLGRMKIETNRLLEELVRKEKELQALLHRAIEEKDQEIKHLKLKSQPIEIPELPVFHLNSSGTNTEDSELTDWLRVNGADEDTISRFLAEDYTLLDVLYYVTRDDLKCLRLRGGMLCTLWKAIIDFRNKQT", "assay": "SelectScreen kinase assay"}, "MAPK11 (p38 beta)": {"target": "MAPK11 (p38 beta) (Homo sapiens, UniProt Q15759)", "sequence (Q15759 whole entry)": "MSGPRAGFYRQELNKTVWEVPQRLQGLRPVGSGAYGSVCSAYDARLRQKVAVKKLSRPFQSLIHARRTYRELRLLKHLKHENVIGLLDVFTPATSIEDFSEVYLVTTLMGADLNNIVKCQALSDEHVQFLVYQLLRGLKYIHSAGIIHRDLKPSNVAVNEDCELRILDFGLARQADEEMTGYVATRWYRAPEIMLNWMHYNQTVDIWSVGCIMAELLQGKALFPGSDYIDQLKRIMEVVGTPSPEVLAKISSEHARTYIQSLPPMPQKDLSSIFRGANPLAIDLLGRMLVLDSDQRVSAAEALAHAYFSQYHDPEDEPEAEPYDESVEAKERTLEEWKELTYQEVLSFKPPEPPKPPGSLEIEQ", "assay": "SelectScreen kinase assay"}, "MARK3": {"target": "MARK3 (Homo sapiens, UniProt P27448)", "sequence (P27448 whole entry)": "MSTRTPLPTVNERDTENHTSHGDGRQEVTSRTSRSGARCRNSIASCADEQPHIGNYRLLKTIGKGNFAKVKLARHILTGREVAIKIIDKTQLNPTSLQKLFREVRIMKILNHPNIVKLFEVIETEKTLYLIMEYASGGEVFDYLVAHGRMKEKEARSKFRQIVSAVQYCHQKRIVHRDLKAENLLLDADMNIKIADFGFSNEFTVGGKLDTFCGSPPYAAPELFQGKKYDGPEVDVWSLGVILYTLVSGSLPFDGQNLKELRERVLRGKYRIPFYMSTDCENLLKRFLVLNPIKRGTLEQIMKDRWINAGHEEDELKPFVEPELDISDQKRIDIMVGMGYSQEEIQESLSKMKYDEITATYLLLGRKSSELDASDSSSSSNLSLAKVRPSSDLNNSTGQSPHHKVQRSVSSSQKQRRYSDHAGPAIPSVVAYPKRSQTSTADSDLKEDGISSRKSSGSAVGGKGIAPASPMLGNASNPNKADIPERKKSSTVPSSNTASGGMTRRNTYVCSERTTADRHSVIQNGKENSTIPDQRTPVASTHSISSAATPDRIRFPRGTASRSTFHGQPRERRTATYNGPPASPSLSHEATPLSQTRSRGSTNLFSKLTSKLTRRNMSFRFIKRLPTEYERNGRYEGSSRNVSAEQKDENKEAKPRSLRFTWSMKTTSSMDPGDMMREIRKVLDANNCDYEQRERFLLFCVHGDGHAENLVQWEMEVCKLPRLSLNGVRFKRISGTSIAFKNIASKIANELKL", "assay": "SelectScreen kinase assay"}, "PIK3C2G (PI3K-C2 gamma)": {"target": "PIK3C2G (PI3K-C2 gamma) (Homo sapiens, UniProt O75747)", "sequence (O75747 whole entry)": "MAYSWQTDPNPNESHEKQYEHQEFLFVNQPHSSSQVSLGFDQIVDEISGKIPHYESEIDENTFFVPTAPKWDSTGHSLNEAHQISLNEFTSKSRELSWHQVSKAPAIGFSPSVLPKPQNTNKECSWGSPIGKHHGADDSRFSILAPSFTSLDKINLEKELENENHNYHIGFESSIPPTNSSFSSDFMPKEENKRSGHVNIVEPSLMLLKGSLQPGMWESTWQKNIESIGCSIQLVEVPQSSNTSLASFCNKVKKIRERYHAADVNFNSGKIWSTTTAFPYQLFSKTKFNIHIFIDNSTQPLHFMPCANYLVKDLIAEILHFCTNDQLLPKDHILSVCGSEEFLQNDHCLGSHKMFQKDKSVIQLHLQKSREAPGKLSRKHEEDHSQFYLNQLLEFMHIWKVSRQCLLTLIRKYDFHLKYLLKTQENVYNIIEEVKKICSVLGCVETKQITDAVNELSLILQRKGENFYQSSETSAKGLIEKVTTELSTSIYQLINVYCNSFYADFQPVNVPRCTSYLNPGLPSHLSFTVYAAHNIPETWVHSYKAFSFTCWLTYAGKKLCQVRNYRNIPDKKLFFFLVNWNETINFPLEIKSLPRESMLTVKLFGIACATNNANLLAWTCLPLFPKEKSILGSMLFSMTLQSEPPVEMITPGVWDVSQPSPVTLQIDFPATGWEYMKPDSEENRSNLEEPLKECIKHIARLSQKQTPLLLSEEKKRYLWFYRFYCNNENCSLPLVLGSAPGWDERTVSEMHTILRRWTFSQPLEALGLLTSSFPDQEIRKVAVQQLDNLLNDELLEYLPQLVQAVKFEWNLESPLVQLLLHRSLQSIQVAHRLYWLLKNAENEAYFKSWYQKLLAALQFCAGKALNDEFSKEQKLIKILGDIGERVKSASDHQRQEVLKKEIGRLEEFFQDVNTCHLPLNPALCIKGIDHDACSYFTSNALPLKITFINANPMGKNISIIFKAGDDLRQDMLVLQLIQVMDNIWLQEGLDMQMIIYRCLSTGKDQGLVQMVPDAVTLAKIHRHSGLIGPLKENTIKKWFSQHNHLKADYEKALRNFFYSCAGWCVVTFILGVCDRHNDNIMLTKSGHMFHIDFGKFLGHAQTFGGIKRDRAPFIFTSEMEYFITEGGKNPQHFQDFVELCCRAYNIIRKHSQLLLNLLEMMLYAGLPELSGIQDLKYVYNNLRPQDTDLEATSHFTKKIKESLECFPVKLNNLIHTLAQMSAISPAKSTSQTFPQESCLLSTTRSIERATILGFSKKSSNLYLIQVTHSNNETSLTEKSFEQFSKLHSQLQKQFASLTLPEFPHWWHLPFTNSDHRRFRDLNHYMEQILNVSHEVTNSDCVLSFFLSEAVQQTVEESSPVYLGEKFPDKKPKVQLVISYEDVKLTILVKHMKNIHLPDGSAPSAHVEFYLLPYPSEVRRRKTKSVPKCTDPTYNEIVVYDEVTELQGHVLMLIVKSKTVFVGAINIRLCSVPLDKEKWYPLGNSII", "assay": "SelectScreen kinase assay"}, "SRPK2": {"target": "SRPK2 (Homo sapiens, UniProt P78362)", "assay": "SelectScreen kinase assay", "conditions": "1 h, 1 μM WEL028, 1 h preincubation"}, "STK22D (TSSK1)": {"target": "STK22D (TSSK1) (Homo sapiens, UniProt Q9BXA7)", "assay": "SelectScreen kinase assay", "conditions": "1 h, 1 μM WEL028, 1 h preincubation"}, "[1]": {"conditions": "1 h, 1 μM WEL028, 1 h preincubation"}, "[2]": {"conditions": "read-out: Inhibition at 1 µM (%)"}},
  "note": "Several values for one entry are separate records, joined by “and”; a condition that tells them apart may be missing. Identical values can stand only once. Like-named read-outs stand apart in the source and are kept apart here.",
  "data": [
    {"smiles": "C#CCOc1ccc(Nc2ncc(Cl)c(Nc3ccccc3NC(=O)C=C)n2)c(OC)c1", "note": "[Compound 6]", "values": [
      {"measurement": "CD11b-positive cells (%)", "setting": "FES^S700C HL-60 cells", "value": "93.1005% and 92.0572% and 93.2155%"},
      {"measurement": "IC50", "setting": "CLK4", "value": 1.26, "unit": "µM"},
      {"measurement": "inhibition at 1 µM", "setting": "CLK4; [1]", "value": 53, "unit": "%"},
      {"measurement": "inhibition at 10 µM", "setting": "CLK4; 1 h, log[inhibitor] (M) -5.00, LanthaScreen Binding", "value": 30, "unit": "%"},
      {"measurement": "inhibition at 3.311 µM", "setting": "CLK4; 1 h, log[inhibitor] (M) -5.48, LanthaScreen Binding", "value": 55, "unit": "%"},
      {"measurement": "inhibition at 1.122 µM", "setting": "CLK4; 1 h, log[inhibitor] (M) -5.95, LanthaScreen Binding", "value": 64, "unit": "%"},
      {"measurement": "inhibition at 0.3715 µM", "setting": "CLK4; 1 h, log[inhibitor] (M) -6.43, LanthaScreen Binding", "value": 39, "unit": "%"},
      {"measurement": "inhibition at 0.123 µM", "setting": "CLK4; 1 h, log[inhibitor] (M) -6.91, LanthaScreen Binding", "value": 26, "unit": "%"},
      {"measurement": "inhibition at 0.0138 µM", "setting": "CLK4; 1 h, log[inhibitor] (M) -7.86, LanthaScreen Binding", "value": 15, "unit": "%"},
      {"measurement": "inhibition at 0.001514 µM", "setting": "CLK4; 1 h, log[inhibitor] (M) -8.82, LanthaScreen Binding", "value": 11, "unit": "%"},
      {"measurement": "inhibition at 0.004571 µM", "setting": "CLK4; 1 h, log[inhibitor] (M) -[…], LanthaScreen Binding", "value": 8, "unit": "%"},
      {"measurement": "Inhibition at 1 µM (%)", "setting": "CLK4; CLK4, 1 µM, LanthaScreen Binding, listed as WEL028, 1 µM", "value": 52, "unit": "%"},
      {"measurement": "Apparent fold selectivity", "setting": "CLK4; IC50 on that kinase divided by IC50 on FES^S700C", "value": 272, "unit": "fold"},
      {"measurement": "inhibition at 1 µM", "setting": "CLK4; read-out: Inhibition at 1 µM (%), CLK4, 1 µM, LanthaScreen Binding", "value": 54, "unit": "%"},
      {"measurement": "inhibition at 1 µM", "setting": "CSNK1A1L; 1 h", "value": 5, "unit": "%"},
      {"measurement": "inhibition at 1 µM", "setting": "CSNK1A1L; [2]", "value": 5, "unit": "%"},
      {"measurement": "inhibition at 1 µM", "setting": "ERN2; 1 h", "value": -1, "unit": "%"},
      {"measurement": "inhibition at 1 µM", "setting": "ERN2; [2]", "value": -1, "unit": "%"},
      {"measurement": "inhibition at 1 µM", "setting": "FLT1 (VEGFR1); [1]", "value": 36, "unit": "%"},
      {"measurement": "Inhibition at 1 µM (%)", "setting": "FLT1 (VEGFR1); FLT1 (VEGFR1), 1 µM, ZLYTE, ATP Km app, listed as WEL028, 1 µM", "value": 31, "unit": "%"},
      {"measurement": "inhibition at 1 µM", "setting": "FLT1 (VEGFR1); read-out: Inhibition at 1 µM (%), FLT1 (VEGFR1), 1 µM, ZLYTE, ATP Km app", "value": 42, "unit": "%"},
      {"measurement": "Inhibition (%)", "setting": "JAK2", "value": 0, "unit": "%"},
      {"measurement": "inhibition at 1 µM", "setting": "MAP3K5 (ASK1); [1]", "value": 6, "unit": "%"},
      {"measurement": "Inhibition at 1 µM (%)", "setting": "MAP3K5 (ASK1); MAP3K5 (ASK1), 1 µM, LanthaScreen Binding, listed as WEL028, 1 µM", "value": 8, "unit": "%"},
      {"measurement": "inhibition at 1 µM", "setting": "MAP3K5 (ASK1); read-out: Inhibition at 1 µM (%), MAP3K5 (ASK1), 1 µM, LanthaScreen Binding", "value": 5, "unit": "%"},
      {"measurement": "inhibition at 1 µM", "setting": "MAPK11 (p38 beta); [1]", "value": 6, "unit": "%"},
      {"measurement": "Inhibition at 1 µM (%)", "setting": "MAPK11 (p38 beta); MAPK11 (p38 beta), 1 µM, ZLYTE, ATP Km app, listed as WEL028, 1 µM", "value": 7, "unit": "%"},
      {"measurement": "inhibition at 1 µM", "setting": "MAPK11 (p38 beta); read-out: Inhibition at 1 µM (%), MAPK11 (p38 beta), 1 µM, ZLYTE, ATP Km app", "value": 6, "unit": "%"},
      {"measurement": "inhibition at 1 µM", "setting": "MARK3; [1]", "value": 6, "unit": "%"},
      {"measurement": "Inhibition at 1 µM (%)", "setting": "MARK3; MARK3, 1 µM, ZLYTE, ATP Km app, listed as WEL028, 1 µM", "value": 8, "unit": "%"},
      {"measurement": "inhibition at 1 µM", "setting": "MARK3; read-out: Inhibition at 1 µM (%), MARK3, 1 µM, ZLYTE, ATP Km app", "value": 5, "unit": "%"},
      {"measurement": "inhibition at 1 µM", "setting": "PIK3C2G (PI3K-C2 gamma); [1]", "value": -3, "unit": "%"},
      {"measurement": "Inhibition at 1 µM (%)", "setting": "PIK3C2G (PI3K-C2 gamma); PIK3C2G (PI3K-C2 gamma), 1 µM, Adapta, ATP 10, listed as WEL028, 1 µM", "value": "-1% and -6%"},
      {"measurement": "inhibition at 1 µM", "setting": "SRPK2", "value": -1, "unit": "%"},
      {"measurement": "inhibition at 1 µM", "setting": "STK22D (TSSK1)", "value": 19, "unit": "%"}
    ]}
  ]
}
